The values below come from patent US20080014186A1, “Hla-A24 or Hla-A2 Binding Peptides of Parathyroid Hormone-Related Protein” (GREEN PEPTIDE CO., LTD., priority 2004, published 2008).

Ends that are not written are not given here.

One data set deals with PC93-A2 cells. The data set can be described thus: Cytotoxicity of peptide-stimulated PBMCs (HLA-A2). It is filed as cell-based, human. The settings on record: PC93-A2 vs PC93 and PHA-stimulated T cell blasts; FIG. 4B, 5. The method, then:
In a similar way to Example 2, it was examined whether or not PTHrP 42-51 and PTHrP 59-67 peptides could induce cancer-reactive CTLs in PBMCs derived from HLA-A2^+ healthy donors and prostate cancer patients. An HLA-A2-expressing PC93 prostate cancer cell line was prepared by constitutively expressing an HLA-A*0201 molecule on a PC93 cell which was a HLA-A2-prostate cancer cell line (established by Dr. K. Ohnishi, Department of Urology, Kyoto University) (PC93-A2 cell). The expression of the HLA-A*0201 molecule on the cell line was previously reported. In addition, the PC93 cells produced PTHrP at a level of 2.2 pmol/l (1×10^6 cell/ml for 24 hr).
Cytotoxicities of these peptide-stimulated PBMCs against PC93 cells, PC93-A2 cells, and PHA-stimulated T cell blasts are shown in FIG. 4B.

The subject of a further data set is LNCaP-A24 cells. The data set can be described thus: 6-hr 51Cr-release cytotoxicity assay of peptide-stimulated PBMCs (HLA-A24). It is filed as cell-based, human. The note with it: LNCaP-A24 vs LNCaP and HLA-A24^+ PHA-blastoid T cells; FIG. 2A. The method, then:
In order to investigate the HLA-A24-restricted and prostate cancer-reactive cytotoxicity of peptide-stimulated PBMCs, an HLA-A24-expressing LNCaP cell line, which was designated as LNCaP-A24, was prepared. The LNCaP is an HLA-A24 negative prostate cancer cell line. To establish LNCaP cells stably expressing HLA-A24 molecules (designated as LNCaP-A24), a pcDNA3.1/Hygro vector (Invitrogen, Calif.), which was inserted with the HLA-A*2402 gene, was electroporated into the LNCaP cell line (ATCC number: CRL-1740), and selection was carried out with hygromycin B (Invitrogen) at a dose of 170 μg/ml. All cell lines were maintained in RPMI-1640 medium (Gibco BRL, Grand Island, N.Y., USA) supplemented with 10% FCS. LNCaP has previously been reported to produce PTHrP (17). A parental LNCaP cell line was negative for the cell surface expression of HLA-A24 molecules, whereas the LNCaP-A24 cell line expressed HLA-A24 molecules on their cell surface. Flow cytometric analysis was performed on LNCaP and LNCaP-A24 cells. These cells were stained with anti-HLA-A24 mAb, followed by FITC-conjugated anti-mouse IgG mAb. The dotted lines represent staining without the first rnAb. […]

FLHHLIAEI [PTHrP 59-67]: the “Induction of prostate cancer-reactive CTLs / cytotoxicity of peptide-stimulated PBMCs” value in the data set with PC93-A2 cells is “have the potential to induce prostate cancer-reactive CTLs”.

As to RAVSEHQLL [PTHrP 36-44], the “Induction of prostate cancer-reactive CTLs / cytotoxicity of peptide-stimulated PBMCs” value in the data set with LNCaP-A24 cells is given as “have the potential to induce prostate cancer-reactive CTLs”.

Take QLLHDKGKSI: in the data set on PC93-A2 cells, the “Induction of prostate cancer-reactive CTLs / cytotoxicity of peptide-stimulated PBMCs” value is given as “have the potential to induce prostate cancer-reactive CTLs”.

As for RYLTQETNKV [PTHrP 102-111], in the data set with LNCaP-A24 cells, the “Induction of prostate cancer-reactive CTLs / cytotoxicity of peptide-stimulated PBMCs” value is given as “have the potential to induce prostate cancer-reactive CTLs”.
